In patent US5627177A, “Piperazine derivatives” (John Wyeth & Brother, Ltd., priority 1993, dated 1997):

Experiments:
[1] = biological target: T1, 5-HT1A receptor (Rattus norvegicus, UniProt P19327); experiment: 5-HT1A receptor antagonism: antagonism of 8-hydroxy-2-(di-n-propylamino)-tetralin (8-OH DPAT) syndrome in the rat; format: in vivo; design: syndrome in the rat; from tissue; host or cells: whole living rat (in vivo); conditions: sc, antagonism of 8-OH DPAT syndrome, read-out: median effective dose
T1 sequence (P19327 1-422): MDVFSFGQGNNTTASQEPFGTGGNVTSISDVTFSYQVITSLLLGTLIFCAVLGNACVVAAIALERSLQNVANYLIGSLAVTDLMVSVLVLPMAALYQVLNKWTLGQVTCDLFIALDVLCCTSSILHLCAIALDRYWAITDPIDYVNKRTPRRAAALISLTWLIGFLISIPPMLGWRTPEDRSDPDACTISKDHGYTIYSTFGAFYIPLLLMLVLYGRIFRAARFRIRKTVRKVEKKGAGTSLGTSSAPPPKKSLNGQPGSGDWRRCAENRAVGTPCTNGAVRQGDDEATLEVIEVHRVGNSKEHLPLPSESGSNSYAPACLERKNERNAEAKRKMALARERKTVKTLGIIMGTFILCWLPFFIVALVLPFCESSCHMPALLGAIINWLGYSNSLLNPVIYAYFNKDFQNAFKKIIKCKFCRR
Description: The compounds are also tested for 5-HT1A receptor antagonism activity in a test involving the antagonism of 8-hydroxy-2-(di-n-propylamino)-tetralin (8-OH DPAT) syndrome in the rat.

[2] = biological target: T1, 5-HT1A receptor; experiment: 5-HT1A receptor binding activity in rat hippocampal membrane homogenate; design: from tissue
Description: The compounds of the invention are tested for 5-HT1A receptor binding activity in rat hippocampal membrane homogenate by the method of B. S. Alexander and M. D. Wood, J Pharm Pharmacol, 1988, 40, 888-891.

SMILES: COC(=O)c1cc2c(N3CCN(CCC(C(=O)N4CCCCCC4)c4ccccc4)CC3)cccc2[nH]1 (racemic) [Example 5, 4-[4-(4-Azepan-1-yl-4-oxo-3-phenylbutyl)piperazin-1-yl]-1H-indole-2-carboxylic acid methyl ester]
- ED50 [1]: 0.3 mg/kg
- IC50 [2]: 0.72 nM
